Measured values: patent US12649723B2, “Carbonohydrazonoyl dicyanide compounds comprising 2 or more aryl or heteroaryl connected via linker and use thereof” (KOREA INSTITUTE OF SCIENCE AND TECHNOLOGY, priority 2020, dated 2026)

Experiments:
tau protein = target: T1, tau protein (Homo sapiens, UniProt P10636); assay: Tau-BiFC cell model: inhibition of tau protein aggregation; type: cell-based; details: for IC50: Tau BiFC in cells, with Forskolin 30 μM, 48 hours; for remaining activity at 3 µM: compounds marked *: measured at 3 μM, read-out: Response
T1 construct: fused on or other part: Split fluorescent-protein halves for BiFC are fused to tau; In the published tau-BiFC line these are Venus VN173 and VC155
Outline: (§1)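 Aggregation was induced by 30 μM Forskolin co-applied with test compound for 48 h, with screening at 1, 3, 10 μM and dose-response at 0.03–30 μM. Nuclei were stained with Hoechst (2 μg/mL) and counted against Forskolin-only wells for cytotoxicity. Inhibition came from BiFC fluorescence relative to Forskolin-only versus untreated cells, with IC50 by nonlinear regression.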

Tau-BiFC cells = assay: Cell viability (cytotoxicity) in tau-BiFC cells, count of stained nuclei; type: cell-based; details: Forskolin-only group = 100% cell viability; for Cell viability: compounds marked *: measured at 3 μM
Outline: as §1

CYP1A2 = target: T2, CYP1A2 (Homo sapiens, UniProt P05177); assay: Inhibitory effect on CYP coenzyme activity, human liver microsomes; type: in vitro ADME; details: compound 10 μM; human liver microsomes 0.25 mg/mL; substrate phenacetin; 15 minutes
T2 construct: human liver microsomes (0.25 mg/mL); from tissue; host or cells: human liver microsomes
T2 sequence (P05177 1-516): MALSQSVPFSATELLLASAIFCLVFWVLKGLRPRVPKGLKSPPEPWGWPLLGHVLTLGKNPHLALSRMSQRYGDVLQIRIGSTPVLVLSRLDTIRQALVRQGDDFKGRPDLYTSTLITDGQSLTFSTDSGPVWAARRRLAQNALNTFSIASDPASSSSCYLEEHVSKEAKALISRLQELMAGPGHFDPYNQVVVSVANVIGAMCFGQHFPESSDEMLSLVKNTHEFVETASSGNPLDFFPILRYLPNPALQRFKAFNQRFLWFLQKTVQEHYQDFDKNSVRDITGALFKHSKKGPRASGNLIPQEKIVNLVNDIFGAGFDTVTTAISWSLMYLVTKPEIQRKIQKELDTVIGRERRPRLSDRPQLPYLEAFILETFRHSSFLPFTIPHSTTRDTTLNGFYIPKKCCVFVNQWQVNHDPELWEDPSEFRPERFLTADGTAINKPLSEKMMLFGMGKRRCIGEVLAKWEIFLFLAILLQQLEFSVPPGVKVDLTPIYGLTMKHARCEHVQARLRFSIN
Method: (§2) The inhibitory effects of the compounds prepared according to Examples 1 to 175 on CYP coenzyme activity were identified. Specifically, human liver microsomes (0.25 mg/mL), a 0.1 M phosphate buffer solution (pH 7.4), a substrate drug cocktail of five types of drug metabolism enzymes (50 μM phenacetin, 10 μM diclofenac, 100 μM S-mephenytoin, 5 μM dextromethorphan, and 2.5 μM midazolam), and the compound at a concentration of 0 μM or 10 μM were mixed and pre-cultured at 37° C. for 5 minutes, and then further cultured at 37° C. for 15 minutes together with an NADPH generation system solution added thereto. Thereafter, the reaction was terminated by adding an acetonitrile solution containing an internal standard material (terfenadine) and centrifuged for 5 minutes (14,000 rpm, 4° C.), and then a supernatant was injected into an LC-MS/MS system for simultaneous analysis of metabolites of the substrate drugs to thereby evaluate the inhibitory effects on drug metabolism.
(§3) Metabolites of each CYP coenzyme indicator drug generated through the reaction were analyzed using the Shimadzu Nexera XR system and TSQ Vantage (Thermo). In an HPLC column, Kinetex C18 (2.1 mm×100 mm, 2.6 μm, particle size; Phenomenex, USA) was used, and mobile phases were (A) distilled water containing 0.1% formic acid and (B) acetonitrile containing 0.1% formic acid, and a gradient program shown in Table 3 was applied thereto.
(§4) The generated metabolites were quantified using a multiple reaction monitoring (MRM) quantification mode, and Xcalibur (version 1.6.1) was used for data analysis. Inhibitory effects of the novel compound prepared according to the examples of the present invention on CYP coenzyme activity are shown in Table 4 below.

CYP2C19 = target: T3, CYP2C19 (Homo sapiens, UniProt P33261); assay: as above; type: in vitro ADME; details: compound 10 μM; human liver microsomes 0.25 mg/mL; substrate S-mephenytoin; 15 minutes
T3 construct: human liver microsomes (0.25 mg/mL); from tissue; host or cells: human liver microsomes
Method: as §2, §3, §4

CYP2C9 = target: T4, CYP2C9 (Homo sapiens, UniProt P11712); assay: as above; type: in vitro ADME; details: compound 10 μM; human liver microsomes 0.25 mg/mL; substrate diclofenac; 15 minutes
T4 construct: human liver microsomes (0.25 mg/mL); from tissue; host or cells: human liver microsomes
Method: as §2, §3, §4

CYP2D6 = target: T5, CYP2D6 (Homo sapiens, UniProt P10635); assay: as above; type: in vitro ADME; details: compound 10 μM; human liver microsomes 0.25 mg/mL; substrate dextromethorphan; 15 minutes
T5 construct: human liver microsomes (0.25 mg/mL); from tissue; host or cells: human liver microsomes
Method: as §2, §3, §4

CYP3A4 = target: T6, CYP3A4 (Homo sapiens, UniProt P08684); assay: as above; type: in vitro ADME; details: compound 10 μM; human liver microsomes 0.25 mg/mL; substrate midazolam; 15 minutes
T6 construct: human liver microsomes (0.25 mg/mL); from tissue; host or cells: human liver microsomes
Method: as §2, §3, §4

[1] = Liver microsome stability; type: in vitro ADME, human; details: amount of substrate remaining; compound 1 μM, 30 minutes, 37° C., NADPH
Method: (§5) The stability of liver microsomes due to the compounds prepared according to Examples 1 to 175 was confirmed. Specifically, four types of liver microsomes (human, dog, rat, and mouse, each 0.25 mg/mL), a 0.1 M phosphate buffer solution (pH 7.4), and each of the compounds at a concentration of 1 μM were mixed and pre-cultured at 37° C. for 5 minutes and further cultured at 37° C. for 30 minutes together with an NADPH generation system solution added thereto. Thereafter, the reaction was terminated by adding an acetonitrile solution containing an internal standard material (chloropropamide) and centrifuged for 5 minutes (14,000 rpm, 4° C.), and then a supernatant was injected into an LC-MS/MS system for analysis of substrate drugs to thereby evaluate metabolic stability due to 8 types of compounds.
(§6) The amount of the substrate remaining after the reaction was analyzed using the Shimadzu Nexera XR system and TSQ Vantage (Thermo). In an HPLC column, Kinetex XB-C18 (2.1 mm×100 mm, particle size of 2.6 μm; Phenomenex, USA) was used, and mobile phases were (A) distilled water containing 0.1% formic acid and (B) acetonitrile containing 0.1% formic acid. Analyst software (version 1.6.3) and Xcalibur (version 1.6.1) were used for data analysis.

[2] = Liver microsome stability; type: in vitro ADME, rat; details: amount of substrate remaining; compound 1 μM, 30 minutes, 37° C., NADPH
Method: as §5, §6

[3] = Liver microsome stability; type: in vitro ADME, mouse; details: amount of substrate remaining; compound 1 μM, 30 minutes, 37° C., NADPH
Method: as §5, §6

[4] = 48 h, Forskolin-only group = 100% tau protein-aggregated state

T6 sequence (P08684 whole entry): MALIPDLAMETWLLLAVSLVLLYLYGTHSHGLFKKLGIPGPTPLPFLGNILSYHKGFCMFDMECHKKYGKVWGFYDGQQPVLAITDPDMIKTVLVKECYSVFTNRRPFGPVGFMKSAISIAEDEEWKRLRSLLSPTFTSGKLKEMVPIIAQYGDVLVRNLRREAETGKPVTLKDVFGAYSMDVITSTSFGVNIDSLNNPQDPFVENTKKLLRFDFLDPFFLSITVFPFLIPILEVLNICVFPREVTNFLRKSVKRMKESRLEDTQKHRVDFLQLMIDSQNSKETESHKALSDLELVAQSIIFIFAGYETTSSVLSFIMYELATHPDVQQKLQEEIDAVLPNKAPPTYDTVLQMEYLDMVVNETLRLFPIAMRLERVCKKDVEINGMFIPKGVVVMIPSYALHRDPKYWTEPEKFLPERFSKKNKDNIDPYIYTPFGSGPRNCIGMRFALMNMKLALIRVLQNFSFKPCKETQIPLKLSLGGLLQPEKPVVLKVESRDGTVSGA
T1 sequence (P10636 2-441 isoform P10636-8 limits assumed): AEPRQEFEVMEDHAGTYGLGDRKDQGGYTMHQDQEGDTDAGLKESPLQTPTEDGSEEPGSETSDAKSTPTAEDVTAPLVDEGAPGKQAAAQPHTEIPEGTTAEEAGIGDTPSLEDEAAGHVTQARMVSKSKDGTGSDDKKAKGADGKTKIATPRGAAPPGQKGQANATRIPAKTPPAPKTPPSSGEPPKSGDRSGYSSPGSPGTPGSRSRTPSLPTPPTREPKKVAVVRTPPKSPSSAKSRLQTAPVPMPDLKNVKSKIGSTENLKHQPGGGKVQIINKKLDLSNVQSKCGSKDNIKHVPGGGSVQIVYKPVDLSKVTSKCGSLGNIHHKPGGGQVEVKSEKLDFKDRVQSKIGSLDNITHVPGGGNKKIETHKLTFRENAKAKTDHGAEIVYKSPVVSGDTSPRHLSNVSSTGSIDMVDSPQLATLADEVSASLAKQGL
T4 sequence (P11712 whole entry): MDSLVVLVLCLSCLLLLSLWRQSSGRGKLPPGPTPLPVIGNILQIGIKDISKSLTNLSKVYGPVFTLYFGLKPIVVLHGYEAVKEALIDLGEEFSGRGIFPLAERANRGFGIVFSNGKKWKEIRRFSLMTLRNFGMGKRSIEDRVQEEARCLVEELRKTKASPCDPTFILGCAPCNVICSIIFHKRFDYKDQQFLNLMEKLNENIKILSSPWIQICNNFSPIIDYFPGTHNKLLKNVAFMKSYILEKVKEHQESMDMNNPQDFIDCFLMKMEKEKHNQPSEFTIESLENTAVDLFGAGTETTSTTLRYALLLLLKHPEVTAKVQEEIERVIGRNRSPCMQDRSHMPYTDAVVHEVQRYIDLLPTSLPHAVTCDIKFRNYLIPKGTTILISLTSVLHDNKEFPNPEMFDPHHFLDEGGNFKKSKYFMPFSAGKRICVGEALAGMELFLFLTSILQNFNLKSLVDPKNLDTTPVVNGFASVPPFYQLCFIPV
T5 sequence (P10635 whole entry): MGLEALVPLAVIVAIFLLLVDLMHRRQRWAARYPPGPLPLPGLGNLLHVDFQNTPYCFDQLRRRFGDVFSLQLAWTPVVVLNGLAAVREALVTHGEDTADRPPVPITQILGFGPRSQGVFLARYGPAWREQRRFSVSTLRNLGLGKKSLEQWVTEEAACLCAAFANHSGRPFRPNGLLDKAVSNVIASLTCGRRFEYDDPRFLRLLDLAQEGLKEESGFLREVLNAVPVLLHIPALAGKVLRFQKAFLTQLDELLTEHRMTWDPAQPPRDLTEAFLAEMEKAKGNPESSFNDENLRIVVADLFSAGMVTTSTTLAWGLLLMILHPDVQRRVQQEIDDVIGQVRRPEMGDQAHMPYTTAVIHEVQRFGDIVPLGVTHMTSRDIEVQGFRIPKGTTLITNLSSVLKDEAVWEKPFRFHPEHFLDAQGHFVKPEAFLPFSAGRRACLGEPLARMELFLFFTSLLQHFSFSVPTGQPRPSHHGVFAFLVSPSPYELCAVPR
T3 sequence (P33261 whole entry): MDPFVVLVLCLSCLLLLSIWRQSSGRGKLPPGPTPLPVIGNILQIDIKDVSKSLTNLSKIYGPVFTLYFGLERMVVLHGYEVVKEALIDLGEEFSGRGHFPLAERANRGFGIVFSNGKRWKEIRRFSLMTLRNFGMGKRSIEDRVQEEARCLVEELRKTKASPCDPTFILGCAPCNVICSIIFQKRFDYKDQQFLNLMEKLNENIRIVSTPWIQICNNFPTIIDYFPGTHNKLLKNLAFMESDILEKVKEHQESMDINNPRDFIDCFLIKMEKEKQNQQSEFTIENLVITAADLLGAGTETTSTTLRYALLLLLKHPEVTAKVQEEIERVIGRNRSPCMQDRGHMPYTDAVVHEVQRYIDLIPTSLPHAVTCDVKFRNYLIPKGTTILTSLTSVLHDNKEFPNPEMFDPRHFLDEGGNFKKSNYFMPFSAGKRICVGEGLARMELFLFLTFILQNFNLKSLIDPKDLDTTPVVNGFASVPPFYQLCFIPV

SMILES | remaining activity at 10 µM (tau protein; 48 h, compound 10 μM, BiFC fluorescence, Forskolin-only group = 100% tau protein-aggregated state, read-out: Response (% @10 μM)) | IC50 (tau protein) | Cell viability (% @10 μM) (Tau-BiFC cells; compound 10 μM) | CYP1A2 (CYP1A2) | CYP2C19 (CYP2C19) | CYP2C9 (CYP2C9) | CYP2D6 (CYP2D6) | CYP3A4 (CYP3A4) | remaining activity at 3 µM (tau protein; [4]) | Cell viability (Tau-BiFC cells) | Human (%) [1] | Rat (%) [2] | Mouse (%) [3]
N#CC(C#N)=NNc1ccc(OCc2cccnc2)cc1 [Compound 124, (4-(pyridin-3-ylmethoxy)phenyl)carbonohydrazonoyl dicyanide] | 0% | 620 nM | 140.9% | 23.4 | 69.9 | 4.4 | 46.6 | 37.5 | – | – | – | – | –
N#CC(C#N)=NNc1ccc(OCc2cn[nH]c2)cc1 [Compound 137, (4-((1H-pyrazol-4-yl)methoxy)phenyl)carbonohydrazonoyl dicyanide] | – | – | – | >100 | >100 | 37 | >100 | 84.8 | 31% | 129% | – | – | –
COc1cc(NN=C(C#N)C#N)ccc1OCc1cnc(C)cn1 [Compound 162, (3-methoxy-4-((5-methylpyrazin-2-yl)methoxy)phenyl)carbonohydrazonoyl dicyanide] | – | 49 nM | – | 79.8 | 75.9 | 73.5 | 70.3 | 73.3 | -25% | 115% | – | – | –
CC(Oc1ccc(NN=C(C#N)C#N)cc1)c1cccnc1 (stereo not drawn) [Compound 140, (4-(1-(pyridin-3-yl)ethoxy)phenyl)carbonohydrazonoyl Dicyanide] | – | – | – | 96.7 | >100 | 11.7 | 69.6 | 30.8 | 18% | 135% | – | – | –
Cc1cc(NN=C(C#N)C#N)ccc1OCc1cc[nH]n1 [Compound 151, (4-((1H-pyrazol-3-yl)methoxy)-3-methylphenyl)carbonohydrazonoyl dicyanide] | – | 22 nM | – | 51.8 | >100 | 19.4 | 94.8 | 88 | -32% | 126% | – | – | –
COc1cc(NN=C(C#N)C#N)ccc1OCc1ccc(C)cc1 [Compound 154, (3-methoxy-4-(4-methylbenzyloxy)phenyl)carbonohydrazonoyl dicyanide] | – | 32 nM | – | 79.1 | 76.3 | 26.6 | 81.7 | 72.5 | -52% | 106% | – | – | –
COc1cc(NN=C(C#N)C#N)ccc1OCc1ccc(C(F)(F)F)cc1 [Compound 155, (3-methoxy-4-(4-(trifluoromethyl)benzyloxy)phenyl)carbonohydrazonoyl dicyanide] | – | – | – | – | – | – | – | – | -43% | 80% | 95.4% | 82% | 90.8%
COc1cc(NN=C(C#N)C#N)ccc1OCc1nc2ccccc2s1 [Compound 165, (4-(benzo[d]thiazol-2-ylmethoxy)-3-methoxyphenyl)carbonohydrazonoyl dicyanide] | – | – | – | – | – | – | – | – | -40% | 113% | 42.4% | 42.4% | 69.6%
Cc1cc(NN=C(C#N)C#N)ccc1OCc1cc2ccccc2s1 [Compound 150, (4-(benzo[b]thiophen-2-ylmethoxy)-3-methylphenyl)carbonohydrazonoyl dicyanide] | – | – | – | – | – | – | – | – | 11% | 118% | 80.7% | 78.7% | 99.5%
COc1cc(NN=C(C#N)C#N)ccc1OCc1cc2ccccc2s1 [Compound 158, (4-(benzo[b]thiophen-2-ylmethoxy)-3-methoxyphenyl)carbonohydrazonoyl dicyanide] | – | 268 nM | – | – | – | – | – | – | -33% | 96% | 36.9% | 48.2% | 73.7%
Cc1cnc(COc2ccc(NN=C(C#N)C#N)cc2C)cn1 [Compound 147, (3-methyl-4-((5-methylpyrazin-2-yl)methoxy)phenyl)carbonohydrazonoyl dicyanide] | – | 147 nM | – | – | – | – | – | – | -19% | 98% | 86.4% | 89% | 91.3%
Cc1cc(NN=C(C#N)C#N)ccc1OCc1ccc(C(F)(F)F)cc1 [Compound 148, (3-methyl-4-(4-(trifluoromethyl)benzyloxy)phenyl)carbonohydrazonoyl dicyanide] | – | – | – | – | – | – | – | – | 22% | 114% | 77.4% | 86.3% | >100%
